From patent US11401270B2, “Alcoxyamino derivatives for treating pain and pain related conditions” (ESTEVE PHARMACEUTICALS, S.A., priority 2017, dated 2022) come the findings set out here.

SMILES strings stand for the structures. Read-outs that look alike come from different tables or passages of the source.

For experiment [1], the target named is Human α2δ-1 subunit of Cav2.2 calcium channel (Homo sapiens (Human), UniProt P54289). Put plainly: Binding Assay to Human α2δ-1 Subunit of Cav2.2 Calcium Channel. As to conditions: human α2δ-1 enriched membranes, 15 nM [3H]-Gabapentin, read-out: Ki(nM) alpha2delta Hum. As to the method: Binding Assay to Human α2δ-1 Subunit of Cav2.2 Calcium Channel.
Human α2δ-1 subunit of Cav2.2 calcium channel, sequence (P54289 25-1103): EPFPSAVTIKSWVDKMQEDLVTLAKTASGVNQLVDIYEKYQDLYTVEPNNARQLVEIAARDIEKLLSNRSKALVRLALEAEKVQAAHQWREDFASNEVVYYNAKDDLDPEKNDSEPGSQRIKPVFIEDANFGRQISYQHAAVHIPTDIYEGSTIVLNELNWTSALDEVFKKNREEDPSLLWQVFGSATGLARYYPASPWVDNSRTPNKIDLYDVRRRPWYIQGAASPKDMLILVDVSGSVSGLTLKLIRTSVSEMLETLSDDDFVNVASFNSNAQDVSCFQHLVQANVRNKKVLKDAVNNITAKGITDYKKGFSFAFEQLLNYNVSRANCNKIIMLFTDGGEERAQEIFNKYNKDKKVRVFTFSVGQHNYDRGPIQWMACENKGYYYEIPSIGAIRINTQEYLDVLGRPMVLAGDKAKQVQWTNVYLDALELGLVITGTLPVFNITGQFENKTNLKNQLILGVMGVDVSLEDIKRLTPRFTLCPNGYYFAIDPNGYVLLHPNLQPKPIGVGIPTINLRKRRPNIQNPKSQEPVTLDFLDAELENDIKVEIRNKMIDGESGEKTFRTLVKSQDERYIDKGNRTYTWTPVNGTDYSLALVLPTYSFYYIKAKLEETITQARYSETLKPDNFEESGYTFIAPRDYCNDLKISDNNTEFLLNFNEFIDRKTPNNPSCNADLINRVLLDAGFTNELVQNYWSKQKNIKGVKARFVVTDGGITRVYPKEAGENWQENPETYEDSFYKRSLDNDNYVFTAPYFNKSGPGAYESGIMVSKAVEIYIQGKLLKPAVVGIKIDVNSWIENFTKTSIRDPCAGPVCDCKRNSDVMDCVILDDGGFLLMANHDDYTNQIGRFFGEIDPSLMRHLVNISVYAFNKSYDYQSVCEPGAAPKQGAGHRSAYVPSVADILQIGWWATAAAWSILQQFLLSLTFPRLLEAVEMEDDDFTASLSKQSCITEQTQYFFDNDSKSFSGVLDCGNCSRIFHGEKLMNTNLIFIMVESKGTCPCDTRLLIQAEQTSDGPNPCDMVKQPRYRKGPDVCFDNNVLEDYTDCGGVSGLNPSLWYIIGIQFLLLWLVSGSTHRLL
NSB (non specific binding) was measured by adding 10 μM pregabalin. The binding of the test compound was measured in five different concentrations. After 60 min incubation at 27° C., binding reaction was terminated by filtering through Multiscreen GF/C (Millipore) presoaked in 0.5% polyethyleneimine in Vacuum Manifold Station, followed by 3 washes with ice-cold filtration buffer containing 50 mM Tris-HCl, pH 7.4.
(§1) Filter plates were dried at 60° C. for 1 hour and 30 μl of scintillation cocktail were added to each well before radioactivity reading.

Experiment [2] deals with Human norepinephrine transporter (NET) (Homo sapiens (Human), UniProt P23975). Put plainly: Binding Assay to Human Norepinephrine Transporter (NET). As to conditions: Table 2, dual compounds; human NET enriched membranes, 5 nM [3H]-Nisoxetin; read-out: Ki(nM) NET Hum. How it is done:
Binding Assay to Human Norepinephrine Transporter (NET).
Human norepinephrine transporter (NET) enriched membranes (5 μg) were incubated with 5 nM of radiolabeled [3H]-Nisoxetin in assay buffer containing 50 mM Tris-HCl, 120 mM NaCl, 5 mM KCl, pH 7.4.
NSB (non specific binding) was measured by adding 10 μM desipramine. The binding of the test compound was measured in five different concentrations. After 60 min incubation at 4° C., binding reaction was terminated by filtering through Multiscreen GF/C (Millipore) presoaked in 0.5% polyethyleneimine in Vacuum Manifold Station, followed by 3 washes with ice-cold filtration buffer containing 50 mM Tris-HCl, 0.9% NaCl, pH 7.4.
as §1

Human norepinephrine transporter (NET), sequence (P23975 whole entry): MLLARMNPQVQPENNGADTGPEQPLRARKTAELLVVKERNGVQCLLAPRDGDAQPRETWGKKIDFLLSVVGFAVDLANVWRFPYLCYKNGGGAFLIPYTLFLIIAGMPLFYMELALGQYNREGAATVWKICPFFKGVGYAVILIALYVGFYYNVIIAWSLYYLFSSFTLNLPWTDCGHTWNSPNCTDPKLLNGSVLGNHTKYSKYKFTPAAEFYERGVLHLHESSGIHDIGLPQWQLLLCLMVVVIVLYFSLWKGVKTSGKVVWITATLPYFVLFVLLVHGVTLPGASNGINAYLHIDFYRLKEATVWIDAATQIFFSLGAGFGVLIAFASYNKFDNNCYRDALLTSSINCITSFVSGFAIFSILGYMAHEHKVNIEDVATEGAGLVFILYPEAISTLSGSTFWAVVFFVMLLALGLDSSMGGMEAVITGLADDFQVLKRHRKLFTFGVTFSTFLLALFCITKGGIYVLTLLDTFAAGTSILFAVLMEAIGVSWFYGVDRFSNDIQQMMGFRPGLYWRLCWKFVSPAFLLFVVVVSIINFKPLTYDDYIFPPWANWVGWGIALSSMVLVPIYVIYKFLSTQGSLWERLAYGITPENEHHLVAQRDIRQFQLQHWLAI

Consider `CNCC[C@H](Oc1ccc(CN2CCN(C)c3ncccc3C2=O)c(F)c1)c1cccs1` [Example 108, (S)-4-(2-fluoro-4-(3-(methylamino)-1-(thiophen-2-yl)propoxy)benzyl)-1-methyl-1,2,3,4-tetrahydro-5H-pyrido[2,3-e)[1,4]diazepin-5-one], for which the Ki in experiment [1] (Table 1) was < 100 nM; in experiment [1] (Table 2, dual compounds) it was < 100 nM; in experiment [2], 100 to 500 nM.

With `CNCC[C@H](Oc1ccc(CN2CCN(C)c3nc(N)ccc3C2=O)c(F)c1)c1cccc(F)c1` [Example 153, (S)-8-amino-4-(2-fluoro-4-(1-(3-fluorophenyl)-3-(methylamino)propoxy)benzyl)-1-methyl-1,2,3,4-tetrahydro-5H-pyrido[2,3-e][1,4]diazepin-5-one], the Ki in experiment [1] (Table 1) was < 100 nM; in experiment [1] (Table 2, dual compounds), < 100 nM; in experiment [2], < 100 nM.

As for `CNCC[C@H](Oc1ccc(CN2CCN(C)c3cnccc3C2=O)cc1)c1cccs1` [Example 96, (S)-1-methyl-4-(4-(3-(methylamino)-1-(thiophen-2-yl)propoxy)benzyl)-1,2,3,4-tetrahydro-5H-pyrido[3,4-e][1,4]diazepin-5-one], the Ki in experiment [1] (Table 1) is 100 to 500 nM; in experiment [1] (Table 2, dual compounds), 100 to 500 nM; in experiment [2], 100 to 500 nM.

As for `CNCC[C@H](Oc1ccc(CN2CCN(C)c3nc(OC)ccc3C2=O)cc1)c1cccs1` [Example 94, (S)-8-methoxy-1-methyl-4-(4-(3-(methylamino)-1-(thiophen-2-yl)propoxy)benzyl)-1,2,3,4-tetrahydro-5H-pyrido[2,3-e][1,4]diazepin-5-one], the Ki in experiment [1] (Table 1) fell in the range of 100 to 500 nM; in experiment [1] (Table 2, dual compounds), 100 to 500 nM; in experiment [2], 100 to 500 nM.

Regarding `CNCC[C@@H](Oc1cccc(N2CCN(C(C)C)CCC2=O)c1)c1ccsc1` [Example 76, (R)-1-isopropyl-4-(3-(3-(methylamino)-1-(thiophen-3-yl)propoxy)phenyl)-1,4-diazepan-5-one], the Ki in experiment [1] (Table 1) was 500 to 3000 nM; in experiment [1] (Table 2, dual compounds) it was 500 to 3000 nM; in experiment [2] it was < 100 nM.

`CNCCC(Oc1ccc(CN2CCN(C)c3ncccc3C2=O)cc1)c1ccc(F)cc1` (stereo not drawn) [Example 115, 4-(4-(1-(4-Fluorophenyl)-3-(methylamino)propoxy)benzyl)-1-methyl-1,2,3,4-tetrahydro-5H-pyrido[2,3-e][1,4]diazepin-5-one]: the Ki in experiment [1] (Table 1) is 500 to 3000 nM; in experiment [1] (Table 2, dual compounds) it was 500 to 3000 nM; in experiment [2], < 100 nM.

In the case of `CCNC[C@H]1CC(=O)N(c2cccc(O[C@@H](CCNC)c3cccs3)c2)CCN1C` [Example 86, (R)-7-((ethylamino)methyl)-1-methyl-4-(3-((S)-3-(methylamino)-1-(thiophen-2-yl)propoxy)phenyl)-1,4-diazepan-5-one], the Ki in experiment [1] (Table 1) lay in the range of 500 to 3000 nM; in experiment [1] (Table 2, dual compounds), 500 to 3000 nM; in experiment [2], 100 to 500 nM.

In the case of `CNCCC(Oc1ccc(CN2CCN(C)c3ncccc3C2=O)c(F)c1)c1ccccc1F` (stereo not drawn) [Example 129, 4-(2-Fluoro-4-(1-(2-fluorophenyl)-3-(methylamino)propoxy)benzyl)-1-methyl-1,2,3,4-tetrahydro-5H-pyrido[2,3-e][1,4]diazepin-5-one], the Ki in experiment [1] (Table 1) was 100 to 500 nM; in experiment [1] (Table 2, dual compounds), 100 to 500 nM; in experiment [2], < 100 nM.

In the case of `CNCC[C@H](Oc1ccc(CN2CCN(C)c3ncccc3C2=O)c(F)c1)c1cccc(F)c1` [Example 136, (S)-4-(2-fluoro-4-(1-(3-fluorophenyl)-3-(methylamino)propoxy)benzyl)-1-methyl-1,2,3,4-tetrahydro-5H-pyrido[2,3-e][1,4]diazepin-5-one], the Ki is < 100 nM in experiment [1] (Table 1); < 100 nM in experiment [1] (Table 2, dual compounds); < 100 nM in experiment [2].

For the compound `CCN1CCC(=O)N(c2cccc(OC(CCNC)c3cccs3)c2)CC1` (stereo not drawn) [Example 58, 1-Ethyl-4-(3-(3-(methylamino)-1-(thiophen-2-yl)propoxy)phenyl)-1,4-diazepan-5-one], the Ki in experiment [1] (Table 1) lay in the range of 500 to 3000 nM; in experiment [1] (Table 2, dual compounds), 500 to 3000 nM; in experiment [2], 100 to 500 nM.

As to `CNCCC(OCc1cccc(N2CCCN(C)CC2)c1)c1cccs1` (stereo not drawn) [Example 10, N-methyl-3-((3-(4-methyl-1,4-diazepan-1-yl)benzyl)oxy)-3-(thiophen-2-yl)propan-1-amine], the Ki in experiment [1] (Table 1) is 500 to 3000 nM; in experiment [1] (Table 2, dual compounds) it was 500 to 3000 nM; in experiment [2] it was 500 to 1000 nM.

With `CNCC[C@H](Oc1ccc(CN2CCCn3nc(C)cc3C2=O)c(F)c1)c1ccccc1` [Example 139, (S)-5-(2-fluoro-4-(3-(methylamino)-1-phenylpropoxy)benzyl)-2-methyl-5,6,7,8-tetrahydro-4H-pyrazolo[1,5-a][1,4]diazepin-4-one], the Ki in experiment [1] (Table 1) is 100 to 500 nM; in experiment [1] (Table 2, dual compounds), 100 to 500 nM; in experiment [2], < 100 nM.

For the compound `CNCCC(Oc1cccc(N2CCN(C(C)C)CCC2=O)c1)c1ccsc1` (stereo not drawn) [Example 75, 1-Isopropyl-4-(3-(3-(methylamino)-1-(thiophen-3-yl)propoxy)phenyl)-1,4-diazepan-5-one], the Ki in experiment [1] (Table 1) was in the range of 100 to 500 nM; in experiment [1] (Table 2, dual compounds) it was 100 to 500 nM; in experiment [2], 100 to 500 nM.

For `CNCCC(Oc1ccc(F)c(N2CCN(C)c3ncccc3C2=O)c1)c1cccc(F)c1` (stereo not drawn) [Example 119, 4-(2-Fluoro-5-(1-(3-ftuorophenyl)-3-(methylamino)propoxy)phenyl)-1-methyl-1,2,3,4-tetrahydro-5H-pyrido[2,3-e][1,4]diazepin-5-one], the Ki in experiment [1] (Table 1) is 100 to 500 nM; in experiment [1] (Table 2, dual compounds), 100 to 500 nM; in experiment [2], < 100 nM.

For the compound `CNCCC(Oc1cccc(N2CCN(C)c3nc(C)ccc3C2=O)c1)c1ccsc1` (stereo not drawn) [Example 78, 1,8-Dimethyl-4-(3-(3-(methylamino)-1-(thiophen-3-yl)propoxy)phenyl)-1,2.3,4-tetrahydro-5H-pyrido[2,3-e][1,4]diazepin-5-one], the Ki in experiment [1] (Table 1) is 100 to 500 nM; in experiment [1] (Table 2, dual compounds), 100 to 500 nM; in experiment [2], 100 to 500 nM.

For `CNCCC(Oc1cccc(N2CCN(C)c3nc(N(C)C)ccc3C2=O)c1)c1cccs1` (stereo not drawn) [Example 70, 8-(Dimethylamino)-1-methyl-4-(3-(3-(methylamino)-1-(thiophen-2-yl)propoxy)phenyl)-1,2,3,4-tetrahydro-5H-pyrido[2,3-e][1,4]diazepin-5-one], the Ki lay within 500 to 3000 nM in experiment [1] (Table 1); 500 to 3000 nM in experiment [1] (Table 2, dual compounds); 100 to 500 nM in experiment [2].

As for `CNCCC(Oc1cccc(N2CCN(C)c3cnccc3C2=O)c1)c1cccs1` (stereo not drawn) [Example 73, 1-Methyl-4-(3-(3-(methylamino)-1-(thiophen-2-yl)propoxy)phenyl)-1.2,3,4-tetrahydro-5H-pyrido[3,4-e][1,4]diazepin-5-one], the Ki in experiment [1] (Table 1) was in the range of 100 to 500 nM.

As to `CNCC[C@H](Oc1ccc(CN2CCN(C)c3ncccc3C2=O)c(C)c1)c1cccs1` [Example 107, (S)-1-methyl-4-(2-methyl-4-(3-(methylamino)-1-(thiophen-2-yl)propoxy)benzyl)-1,2,3,4-tetrahydro-5H-pyrido[2,3-e][1,4]diazepin-5-one], the Ki in experiment [1] (Table 1) was < 100 nM.

For the compound `CNCCC(Oc1ccc(CN2CCN(C)CCC2=O)cc1)c1cccs1` (stereo not drawn) [Example 101, 1-Methyl-4-(4-(3-(methylamino)-1-(thiophen-2-yl)propoxy)benzyl)-1,4-diazepan-5-one], the Ki in experiment [1] (Table 1) was 100 to 500 nM.

As to `CCNC[C@@H]1CC(=O)N(c2cccc(O[C@@H](CCNC)c3cccs3)c2)CCN1C` [Example 87, (S)-7-((ethylamino)methyl)-1-methyl-4-(3-((S)-3-(methylamino)-1-(thiophen-2-yl)propoxy)phenyl)-1,4-diazepan-5-one], the Ki in experiment [1] (Table 1) was in the range of 500 to 3000 nM.

With `CNCC[C@@H](Oc1cccc(N2CCN(C)c3nc(C)ccc3C2=O)c1)c1ccsc1` [Example 79, (R)-1,8-dimethyl-4-(3-(3-(methylamino)-1-(thiophen-3-yl)propoxy)phenyl)-1,2,3,4-tetrahydro-5H-pyrido[2,3-e][1,4]diazepin-5-one], the Ki in experiment [1] (Table 1) fell in the range of 100 to 500 nM.

Regarding `CNCC(OCc1ccc(N2CCN(C)c3ccccc3C2=O)cc1)c1ccccc1` (stereo not drawn) [Example 85, 1-Methyl-4-(4-((2-(methylamino)-1-phenylethoxy)methyl)phenyl)-1,2,3.4-tetrahydro-5H-benzo[e][1,4]diazepin-5-one], in experiment [1] (Table 1), the Ki was > 3000 nM.

For the compound `CNCC[C@H](OCc1cccc(N2CCN(C)c3ccccc3C2=O)c1)c1ccccc1` [Example 49], the Ki in experiment [1] (Table 1) was > 3000 nM.

On to `CCNCC(=O)N1CCC(=O)N(c2cccc(OC(CCNC)c3cccs3)c2)CC1` (stereo not drawn) [Example 68, 1-(Ethylglycyl)-4-(3-(3-(methylamino)-1-(thiophen-2-yl)propoxy)phenyl)-1,4-diazepan-5-one], for which the Ki in experiment [1] (Table 1) was 500 to 3000 nM.

For the compound `CNCCC(OCc1cccc(N2CCN(C)c3ncccc3C2=O)c1)c1ccccc1` (stereo not drawn) [Example 45, 1-Methyl-4-(3-((3-(methylamino)-1-phenylpropoxy)methyl)phenyl)-1,2,3,4-tetrahydro-5H-pyrido[2,3-e][1,4]diazepin-5-one], in experiment [1] (Table 1), the Ki lay within 500 to 3000 nM.
